Reference: patent US9266817B2, “Catecholamine derivatives for obesity and neurological disorders” (EMORY UNIVERSITY, priority 2009, dated 2016)
“Also recorded” adds a separate entry of the source.

Key:
TrkB F616A [1] = target: T1, TrkB F616A (Mus musculus, UniProt P15209); test: TrkB phosphorylation in TrkB F616A or TrkA F592A cortical neurons pretreated with K252a or 1NMPP1; format: cell-based, mice
T1 construct: endogenous in cells; host or cells: primary cortical neurons from TrkB F616A knock-in mice
Procedure: (§1) TrkB F616A mice were pretreated with 1NMPP1 (50 μM) before L-DOPA or DOPS administration.
(§2) On day 7, the primary cortical neurons were pretreated with 100 nM K252a or 1NMPP1 for 30 min, followed by 500 nM ADPP and DDAP. Cell lysates were analyzed by Western blotting.

TrkB [2] = target: T2, TrkB (Rattus norvegicus, UniProt Q63604); test: Immunoblotting of TrkB phosphorylation in primary cortical neurons treated with catecholamines; format: cell-based; settings: cortical neurons
T2 construct: endogenous in cells; host or cells: primary rat cortical and hippocampal neurons
Procedure: Primary cultured rat cortical neurons were prepared as follows. E17 rat pups were decapitated and cortex was extirpated, cross chopped and suspended by pipetting for separation in 5% fetal calf serum (FCS), 5% horse serum (HS) DMEM. The cell suspension was then centrifuged at 250×g for 5 min. This operation was repeated. Cells were seeded into polyethyleneimine-coated 10 cm^2 dishes and 12-well plates including coated-coverslips and incubated at 37° C. in 5% CO2/95% air. After 3 hours, the culture medium was changed to Neurobasal containing B-27 supplement (Invitrogen; Carlsbad, Calif.) and incubated for 4 days. For maintenance, half of the culture medium was changed to fresh Neurobasal/B27 in every 4 days. After 1 week, the dished cultured neurons were ready for use.
To explore whether monoamine neurotransmitters, including catecholamines (see, e.g., FIG. 1), could stimulate TrkB activation, hippocampal neurons were treated with 300 nM of catecholamines, serotonin, and melatonin for 30 min.

TrkB [3] = target: T2, TrkB; test: TrkB activation in cortical neurons after pretreatment with antibodies, receptor antagonists, transporter inhibitors or EDTA (anti-p-TrkB-Y-816 immunoblot); format: cell-based
Description: Both antidepressants and exercise increase hippocampal BDNF mRNA expression through enhanced 5-HT and/or NE neurotransmission (Siuciak et al., Pharmacol. Biochem. Behav., 56:131-137, 1997; Dias et al., Neuropharmacology, 45:553-563, 2003; Ivy et al., Pharmacol. Biochem. Behav., 75:81-88, 2003; Garza et al., Pharmacol. Biochem. Behav., 77:209-220, 2004). If catecholamines activated TrkB signaling indirectly by promoting BDNF generation, then scavenging BDNF with its specific antibody would be expected to diminish catecholamines-mediated activation of TrkB. Cultured cortical neurons were pretreated with BDNF-IgG for 30 minutes followed by exposure to BDNF (10 ng/ml) or catecholamines (100 nM) for 15 minutes. […] It was then determined whether catecholamines could activate TrkB in neurons cultured from mice carrying a null mutation of BDNF.
To further investigate the specificity of catecholamines in inducing TrkB activation, cortical neurons were pretreated with control IgG or norepinephrine IgG, a rabbit polyclonal antibody for norepinephrine, followed by catecholamines.
(§3) It was then determined whether catecholamines could activate TrkB in neurons cultured from mice carrying a null mutation of NET.
(§4) The cell lysates were analyzed by immunoblotting with anti-p-TrkB-Y-816.
as §4
A group of primary cortical neurons were pretreated with 1 mM EDTA, and another group of primary cortical neurons were not pretreated. Both groups of primary cortical neurons were then treated with either Zn (100 μM) or a catecholamine (100 nM) for 15 minutes. The neuronal cell lysates were analyzed by immunoblotting with anti-p-TrkB-Y-816 antibody.

TrkB [4] = target: T3, TrkB (Mus musculus, UniProt P15209); format: cell-based, mice; settings: compared to wild-type control neurons
T3 construct: endogenous in cells; host or cells: primary cortical neurons from BDNF-null, TrkB +/- cross, TrkC knockout and NET -/- mice
Procedure: as §3

[5] = system: TrkB F616A cortical neurons; test: Glutamate-provoked apoptosis of TrkB F616A cortical neurons (TUNEL assay); format: cell-based, mice; settings: 50 mM glutamate overnight
Procedure: Norepinephrine has neuroprotective activity against oxidative stress-induced neuronal apoptosis. To investigate whether this protective action by norepinephrine is mediated through TrkB, apoptosis of TrkB F616A cortical neurons was monitored. Primary cortical neurons were pretreated with inhibitors K252a or 1NMPP1 followed by overnight treatment with 50 mM glutamate.

TrkB [6] = target: TrkB (Homo sapiens, UniProt Q16620); test: Activation of transfected TrkB in HEK293 cells with or without DAT or NET; format: cell-based; parameters: expressed in transfected cells; host or cells: HEK293; settings: NET transfected HEK293 cells
[7] = target: T4, TrkB intracellular domain (ICD) (Homo sapiens, UniProt Q16620); test: In vitro binding assay with purified TrkB ICD and 3H-ligands (Scatchard plot); settings: purified protein, 25° C., 30 minutes; read-out: TrkB binding constants (Scatchard plot)
T4 construct: purified ECD (extracellular domain) and ICD (intracellular domain) proteins from Trk receptors
Procedure: Purified TrkA and TrkB ECD or ICD proteins were incubated with different ^3H-catecholamines at 25° C. for 30 minutes in 1 ml of binding buffer (50 mM Tris-HCl, pH 7.4, 100 mM NaCl, 5 nM ^3H-catecholamines (32000 cpm)). After the incubation, the reaction mixture was loaded on a Whatman glass-fiber filter (GF-B) (Whatman Inc.; Piscataway, N.J.). The mixture was washed with 3×5 ml washing buffer (50 mM Tris-HCl, pH 7.4). The dried filter paper was put into a small vial and subjected to liquid scintillation counter analysis. The value of the dissociate constant and the number of sites were obtained from Scatchard plots by using the equation r/[L]free =n/Kd−r/Kd, where r is the ratio of the concentration of bound ligand to the total protein concentration and n is the number of binding sites.
To determine whether catecholamines bind TrkB directly, an in vitro binding assay was conducted with purified ECD (extracellular domain) and ICD (intracellular domain) proteins from Trk receptors and ^3H-catecholamines. […] To determine whether the binding by catecholamines to TrkB receptor caused dimerization, GST-TrkB was co-transfected into HEK293 cells with HA-TrkB, followed by BDNF or monoamines treatment for 15 minutes.

TrkB F616A knockin mice = test: Kainic acid-induced neuronal apoptosis in TrkB F616A knockin mice (immunoblotting and Caspase-3 ELISA); format: in vivo; settings: 50 mg/kg orally 2 hours before KA 20 mg/kg
Procedure: To determine whether Compound I-11 (ADPP) and Compound I-8 (DDAP) protect neurons from KA-induced apoptosis, TrkB F616A knockin mice were pretreated with inhibitor 1NMPP1 (16.6 ng/kg) 2 days before the experiment. Compound I-8 (DDAP) or Compound I-11 (ADPP) (50 mg/kg) was orally injected into the mice 2 hours before kainic acid (KA) administration (20 mg/kg). Brain lysates were analyzed by immunoblotting and Caspase-3 ELISA. […] The extent of the protective effect correlates with TrkB activation status by these compounds. Active Caspase-3 ELISA correlated with the immunoblotting results (FIG. 28B, right panel).

mice = test: Forced swim test; format: in vivo; settings: for Swimming immobility: 20 mg/kg intraperitoneally, adult male mice; for Immobility time after 1NMPP1 treatment: TrkB F616A knockin mice, 1NMPP1 pretreatment
Procedure: Accumulating evidence supports that BDNF plays an essential role in mediating antidepressants' therapeutic effects. Infusion of exogenous BDNF into hippocampus or brain stem has antidepressant-like behavioral effect. A forced swim test is broadly used for screening of potential antidepressant drugs and is widely used to measure antidepressant activity. To explore whether Compound I-11 (ADPP) and Compound I-8 (DDAP) have antidepressant effects like BDNF, forced swim tests were conducted. Adult male mice (2-3 months old, n=8) were randomly submitted, without a pre-swim, to a forced swim test of 6 minutes with immobility recorded in the last 4 minutes. Mice were injected intraperitoneally with saline, Compound I-11 (20 mg/kg), or Compound I-8 (20 mg/kg). The mice were allowed to adapt to the test room for 2 days, and the mice were placed in a clear glass cylinder with a diameter of 16 cm, half-filled with clear water at 24° C.
To assess whether the behavior responses caused by catecholamine derivatives is mediated by TrkB receptor, TrkB F616A knockin mice were utilized. The mice were subjected to saline or 1NMPP1 inhibitor pretreatment.

TrkB F616A [8] = target: T5, TrkB F616A (Mus musculus, UniProt P15209, F616A); test: TrkB phosphorylation in TrkB F616A or TrkA F592A cortical neurons pretreated with K252a or 1NMPP1; format: cell-based, mice; settings: primary TrkB F616A cortical neurons, 100 nM inhibitor 30 min, 500 nM compound
T5 construct: endogenous in cells; host or cells: primary cortical neurons from TrkB F616A knock-in mice
Procedure: as §1, §2

TrkB [9] = test: TrkB activation in mouse brain after administration of catecholamine derivatives (anti-p-TrkB-Y-816 immunoblot); format: in vivo; settings: for Time at which TrkB activity peaked: 50 mg/kg orally; for TrkB activation in the brains of the mice: 50 mg/kg orally (in saline), C57BL/6J mice; for Oral bioavailability: mice; for Minimal dosage required to activate TrkB: orally, mice sacrificed after 4 hours; for TrkB activation in mouse brains: via drinking water or intraperitoneal injection
Procedure: To explore whether these compounds could stimulate TrkB in vivo, 50 mg/kg of Compound I-11, Compound I-8, and Compound I-2 (2-(methylamino)-3′,4′-dihydroxy-acetophenone) were each orally administered (in saline) to 2-month-old C57BL/6J mice. The mice were sacrificed at different time points and TrkB activation in the brains of the mice was monitored by immunoblotting with anti-p-TrkB-Y-816 antibody.
To determine the minimal required dosages for Compound I-11 and Compound I-8, different doses of the compounds were each orally administered to mice. The mice were sacrificed after 4 hours, and the brain lysates were analyzed by immunoblotting with anti-p-TrkB-Y-816 antibody.
To search for orally bioactive catecholamines, catecholamine derivatives described herein were screened using primary neuronal cultures. The in vitro active compounds, Compounds I-8 and I-11, were adminstered into two to three month old C57BL/6J mice orally, intraperitoneally, and in drinking water. For oral administration, the mice were administered 0 mg (control), 5 mg, 10 mg, 20 mg, or 50 mg of Compound I-8 or Compound I-11. After 4 hours, TrkB phosphorylation in mouse brain was monitored by analyzing the brain lysates using immunoblotting with anti-p-TrkB-Y-816 antibody. The ratios of p-TrK/total TrkB were quantified (FIG. 27A). For intraperitoneal administration, 50 mg/kg of Compound I-8 or Compound I-11 were intraperitoneally injected into the mice. The brain lysates were prepared at different times (0 hr, 1 hr, 2 hr, 4 hr, and 8 hr) and were analyzed by immunoblotting with anti-p-TrkB-Y-816 antibody (FIG. 27B). Compound I-8 and Compound I-11 were dissolved in drinking water and given to mice. After 24 h, the brain lysates were prepared and analyzed by immunoblotting with anti-p-TrkB-Y-816 antibody (FIG. 27C). […] Therefore, these compounds are useful in treating various neurological or neuropsychiatric diseases as described herein.

TrkB [10] = target: T2, TrkB; test: Screening of catecholamine derivatives for TrkB activation in primary cortical neurons (anti-p-TrkB-Y-816 immunoblot); format: cell-based; settings: 500 nM, 30 min
Procedure: Catecholamines can directly bind to the kinase domain of the TrkB receptor and activate it. However, the catecholamines are not able to cross through the blood brain barrier. […] Cortical neurons (7 DIV cortical neurons from 18 day old Sprague Dawley rat embryos) were treated with 500 nM of the selected compound for 30 min and cell lysates were prepared. The cell lysates ([…]) were analyzed for TrkB activation by immunoblotting with anti-p-TrkB-Y-816 antibody.
Catecholamine derivatives as described herein, including Compound I-2, Compound I-5, Compound I-7, Compound I-8, Compound I-9, Compound I-10, Compound I-11, Compound I-14, Compound I-15, Compound I-17, Compound I-18, and isoproterenol, were screened for TrkB activation in primary cortical neurons. Cortical neurons (7 DIV cortical neurons from 18 day old Sprague Dawley rat embryos) were treated with 500 nM of the selected compound for 30 min and cell lysates were prepared. The cell lysates ([…]) were analyzed for TrkB activation by immunoblotting with anti-p-TrkB-Y-816 antibody.

T2 sequence (Q63604 32-821): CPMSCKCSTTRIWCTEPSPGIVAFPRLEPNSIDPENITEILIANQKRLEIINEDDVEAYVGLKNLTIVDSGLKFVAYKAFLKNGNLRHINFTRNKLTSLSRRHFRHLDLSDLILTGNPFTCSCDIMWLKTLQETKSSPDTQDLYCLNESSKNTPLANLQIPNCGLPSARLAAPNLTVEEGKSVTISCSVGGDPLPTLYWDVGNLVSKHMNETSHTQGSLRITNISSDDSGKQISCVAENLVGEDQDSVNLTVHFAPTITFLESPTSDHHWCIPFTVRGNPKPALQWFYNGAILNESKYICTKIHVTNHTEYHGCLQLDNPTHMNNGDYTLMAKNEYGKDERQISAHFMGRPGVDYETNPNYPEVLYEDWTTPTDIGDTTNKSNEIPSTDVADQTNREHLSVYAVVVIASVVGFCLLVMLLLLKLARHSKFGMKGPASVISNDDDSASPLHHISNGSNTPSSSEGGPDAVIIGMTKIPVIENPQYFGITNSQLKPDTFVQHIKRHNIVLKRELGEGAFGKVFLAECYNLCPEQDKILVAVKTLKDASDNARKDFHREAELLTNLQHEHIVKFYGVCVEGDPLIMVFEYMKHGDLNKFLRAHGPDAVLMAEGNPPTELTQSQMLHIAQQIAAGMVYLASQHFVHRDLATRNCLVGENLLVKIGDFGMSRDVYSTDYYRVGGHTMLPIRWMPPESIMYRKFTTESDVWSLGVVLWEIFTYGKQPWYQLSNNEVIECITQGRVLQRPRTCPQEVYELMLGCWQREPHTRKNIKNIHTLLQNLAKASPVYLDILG
T5 sequence (P15209 32-821 F616A): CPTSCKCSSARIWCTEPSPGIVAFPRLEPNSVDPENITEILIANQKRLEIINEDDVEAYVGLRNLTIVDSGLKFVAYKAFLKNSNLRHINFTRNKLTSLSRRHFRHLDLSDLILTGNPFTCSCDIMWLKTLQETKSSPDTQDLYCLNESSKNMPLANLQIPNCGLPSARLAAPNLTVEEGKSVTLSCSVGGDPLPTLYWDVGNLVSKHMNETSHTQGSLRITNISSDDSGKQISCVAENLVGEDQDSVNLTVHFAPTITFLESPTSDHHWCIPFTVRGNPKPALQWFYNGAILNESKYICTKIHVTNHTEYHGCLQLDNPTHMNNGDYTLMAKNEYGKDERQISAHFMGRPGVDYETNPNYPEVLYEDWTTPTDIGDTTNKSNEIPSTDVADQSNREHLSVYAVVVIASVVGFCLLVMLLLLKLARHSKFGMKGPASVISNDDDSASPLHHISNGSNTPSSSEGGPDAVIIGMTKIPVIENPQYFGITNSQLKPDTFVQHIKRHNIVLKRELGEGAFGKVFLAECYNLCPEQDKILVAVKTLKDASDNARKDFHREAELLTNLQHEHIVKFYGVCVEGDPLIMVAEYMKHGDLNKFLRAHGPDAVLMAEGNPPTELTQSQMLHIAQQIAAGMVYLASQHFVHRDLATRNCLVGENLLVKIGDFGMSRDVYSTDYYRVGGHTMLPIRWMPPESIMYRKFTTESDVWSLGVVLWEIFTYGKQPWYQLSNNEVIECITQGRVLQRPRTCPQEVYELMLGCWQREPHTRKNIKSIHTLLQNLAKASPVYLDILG
T4 sequence (Q16620 455-822 limits assumed): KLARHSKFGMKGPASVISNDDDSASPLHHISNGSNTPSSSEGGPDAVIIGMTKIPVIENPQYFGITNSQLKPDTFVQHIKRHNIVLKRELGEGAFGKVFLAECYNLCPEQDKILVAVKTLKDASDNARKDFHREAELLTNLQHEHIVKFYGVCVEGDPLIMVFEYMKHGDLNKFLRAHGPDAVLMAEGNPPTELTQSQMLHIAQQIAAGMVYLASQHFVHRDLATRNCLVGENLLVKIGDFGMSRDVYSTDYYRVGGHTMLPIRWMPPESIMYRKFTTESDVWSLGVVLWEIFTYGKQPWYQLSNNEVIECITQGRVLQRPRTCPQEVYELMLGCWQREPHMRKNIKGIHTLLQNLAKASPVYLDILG
TrkB (Homo sapiens, UniProt Q16620), sequence (Q16620 32-822, species assumed): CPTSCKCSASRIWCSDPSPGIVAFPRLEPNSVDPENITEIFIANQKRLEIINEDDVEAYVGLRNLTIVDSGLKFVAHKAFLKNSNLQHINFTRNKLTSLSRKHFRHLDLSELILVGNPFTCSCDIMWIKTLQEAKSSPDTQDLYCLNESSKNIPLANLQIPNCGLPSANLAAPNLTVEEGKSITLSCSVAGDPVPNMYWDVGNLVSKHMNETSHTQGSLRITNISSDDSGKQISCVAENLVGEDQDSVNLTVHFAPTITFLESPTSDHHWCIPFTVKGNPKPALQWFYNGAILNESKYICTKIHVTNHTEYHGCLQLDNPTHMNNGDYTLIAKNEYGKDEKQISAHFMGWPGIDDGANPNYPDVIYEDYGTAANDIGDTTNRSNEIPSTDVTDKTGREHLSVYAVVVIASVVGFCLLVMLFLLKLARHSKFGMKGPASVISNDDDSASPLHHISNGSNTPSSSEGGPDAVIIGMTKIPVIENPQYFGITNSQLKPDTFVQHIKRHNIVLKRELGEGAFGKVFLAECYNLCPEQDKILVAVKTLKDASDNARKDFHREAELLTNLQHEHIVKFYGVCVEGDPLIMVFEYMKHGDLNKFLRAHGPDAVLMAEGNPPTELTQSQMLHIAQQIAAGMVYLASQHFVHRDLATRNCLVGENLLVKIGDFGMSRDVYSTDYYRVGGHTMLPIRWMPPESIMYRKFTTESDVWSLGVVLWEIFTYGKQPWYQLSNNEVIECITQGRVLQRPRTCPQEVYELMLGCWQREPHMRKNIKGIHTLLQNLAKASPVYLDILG
T1 sequence (P15209 32-821 F616A): as the sequence (P15209 32-821 F616A) above
T3 sequence (P15209 32-821): as the sequence (P15209 32-821 F616A) above, with A585F counted along it

Row | SMILES | Effect of inhibitor on catecholamine-induced TrkB activation (TrkB F616A [1]) | Effect of K252a pretreatment on catecholamine-triggered TrkB tyrosine phosphorylation (TrkB [2]) | Effect of norepinephrine IgG on the agonistic effect of the substance on TrkB activation (TrkB [3]; IgG 15 min, then 300 nM catecholamines 15 min) | Effect of norepinephrine IgG on the agonistic effect of the substance (TrkB [3]; compared to control IgG) | TrkB activation in NET -/- neurons (TrkB [4]) | Glutamate-provoked neuronal cell death [5] | Increase of stimulatory activity by overexpression of NET compared to control cells (TrkB [6]) | Kd [7] | Kainic acid (KA)-provoked neuronal cell death in mouse brain (TrkB F616A knockin mice) | Swimming immobility (mice) | Immobility time after 1NMPP1 treatment (mice) | TrkB activation by the compound after K252a or 1NMPP1 pretreatment (TrkB F616A [8]) | Time at which TrkB activity peaked (TrkB [9]) | TrkB activation in the brains of the mice (TrkB [9]) | Oral bioavailability (TrkB [9]) | Passage through the blood brain barrier (TrkB [9]; orally administered, mouse brain) | Minimal dosage required to activate TrkB (TrkB [9]) | TrkB activation in mouse brains (TrkB [9]) | TrkB activation in primary cortical neurons (TrkB [10]) | Passage through the blood brain barrier (TrkB [9]; mouse, in vivo, po)
1 | COC(=O)[C@@]1(O)C[C@H]2O[C@]1(C)n1c3ccccc3c3c4c(c5c6ccccc6n2c5c31)C(=O)NC4 [Compound K252a] | robustly inhibited | robustly blocked |  |  |  |  |  |  |  |  |  |  |  |  |  |  |  |  |  | 
2 | NC[C@H](O)c1ccc(O)c(O)c1 [norepinephrine] |  |  | selectively inhibited | selectively neutralized | completely blocked | robustly suppressed | approximately 100 fold | 98 µM |  |  |  |  |  |  |  |  |  |  |  | 
3 | CC(N)C(=O)c1ccc(O)c(O)c1 (stereo not drawn) [Compound I-11, 2-amino-3′,4′-dihydroxy-propiophenone] |  |  |  |  |  |  |  |  | potently suppress; also recorded: robustly repressed | significantly decreased | still active in decreasing immobility | selectively blocked by 1NMPP1 but not K252a | 8 h | potently activated TrkB | orally bio-available | can pass through the blood brain barrier | 10 mg/kg | potently activate TrkB | prominently activated TrkB; also recorded: prominent stimulatory effect | 
4 | CN(C)CC(=O)c1ccc(O)c(O)c1 [Compound I-8, α-dimethylamino-3′,4′-dihydroxyacetophenone] |  |  |  |  |  |  |  |  | potently suppress; also recorded: robustly repressed | significantly decreased | no significant effect | selectively blocked by 1NMPP1 but not K252a | 8 h | potently activated TrkB | orally bio-available |  | 20 mg/kg | potently activate TrkB | prominently activated TrkB; also recorded: prominent stimulatory effect | can pass through the blood brain barrier
